Test results taken from ChEMBL document CHEMBL1697731, “Cheminformatics analysis of assertions mined from literature that describe drug-induced liver injury in different species” (Chem Res Toxicol, 2010).

How the values were obtained:
[1] = system: Hepatotoxicity; assay: Literature-mined compound from Fourches et al multi-species drug-induced liver injury (DILI) dataset, effect in humans; conditions: human
[2] = system: Hepatotoxicity; assay: Literature-mined compound from Fourches et al multi-species drug-induced liver injury (DILI) dataset, effect in rodents; conditions: rodentia
[3] = system: Hepatotoxicity; assay: Literature-mined compound from Fourches et al multi-species drug-induced liver injury (DILI) dataset, effect in non-rodents

O=c1[nH]c(=O)n([C@H]2C[C@H](O)[C@@H](CO)O2)cc1F [FLOXURIDINE]
Hepatotoxicity [1]: drug-induced liver injury reported
Hepatotoxicity [2]: drug-induced liver injury reported
Hepatotoxicity [3]: no drug-induced liver injury reported

OC(Cn1cncn1)(Cn1cncn1)c1ccc(F)cc1F [FLUCONAZOLE]
Hepatotoxicity ([1]; Liver): drug-induced liver injury reported
Hepatotoxicity ([2]; Liver): drug-induced liver injury reported
Hepatotoxicity ([3]; Liver): no drug-induced liver injury reported

Nc1nc(=O)[nH]cc1F [FLUCYTOSINE]
Hepatotoxicity [1]: no drug-induced liver injury reported
Hepatotoxicity [2]: drug-induced liver injury reported
Hepatotoxicity [3]: no drug-induced liver injury reported

O=C(O)c1ccccc1Nc1cccc(C(F)(F)F)c1 [FLUFENAMIC ACID]
Hepatotoxicity [1]: drug-induced liver injury reported
Hepatotoxicity [2]: drug-induced liver injury reported
Hepatotoxicity [3]: no drug-induced liver injury reported

CCOC(=O)c1ncn2c1CN(C)C(=O)c1cc(F)ccc1-2 [FLUMAZENIL]
Hepatotoxicity [1]: drug-induced liver injury reported
Hepatotoxicity [2]: no drug-induced liver injury reported
Hepatotoxicity [3]: no drug-induced liver injury reported

CN1C(=O)CN=C(c2ccccc2F)c2cc([N+](=O)[O-])ccc21 [FLUNITRAZEPAM]
Hepatotoxicity [1]: no drug-induced liver injury reported
Hepatotoxicity [2]: no drug-induced liver injury reported
Hepatotoxicity [3]: drug-induced liver injury reported

O=c1[nH]cc(F)c(=O)[nH]1 [FLUOROURACIL]
Hepatotoxicity [1]: drug-induced liver injury reported
Hepatotoxicity [2]: drug-induced liver injury reported
Hepatotoxicity [3]: drug-induced liver injury reported

CC(C(=O)O)c1ccc(-c2ccccc2)c(F)c1 (centres undefined) [FLURBIPROFEN]
Hepatotoxicity [1]: no drug-induced liver injury reported
Hepatotoxicity [2]: drug-induced liver injury reported
Hepatotoxicity [3]: drug-induced liver injury reported

CC(C)C(=O)Nc1ccc([N+](=O)[O-])c(C(F)(F)F)c1 [FLUTAMIDE]
Hepatotoxicity [1]: drug-induced liver injury reported
Hepatotoxicity [2]: drug-induced liver injury reported
Hepatotoxicity [3]: no drug-induced liver injury reported

CC(C)n1c(/C=C/C(O)CC(O)CC(=O)O)c(-c2ccc(F)cc2)c2ccccc21 (centres undefined) [FLUVASTATIN]
Hepatotoxicity ([1]; Liver): drug-induced liver injury reported
Hepatotoxicity ([2]; Liver): drug-induced liver injury reported
Hepatotoxicity ([3]; Liver): no drug-induced liver injury reported

COCCCC/C(=N\OCCN)c1ccc(C(F)(F)F)cc1 [FLUVOXAMINE]
Hepatotoxicity [1]: drug-induced liver injury reported
Hepatotoxicity [2]: drug-induced liver injury reported
Hepatotoxicity [3]: no drug-induced liver injury reported

Nc1nc2ncc(CNc3ccc(C(=O)N[C@@H](CCC(=O)O)C(=O)O)cc3)nc2c(=O)[nH]1 [FOLIC ACID]
Hepatotoxicity [1]: drug-induced liver injury reported
Hepatotoxicity [2]: drug-induced liver injury reported
Hepatotoxicity [3]: no drug-induced liver injury reported

Cc1cn[nH]c1 [FOMEPIZOLE]
Hepatotoxicity [1]: drug-induced liver injury reported
Hepatotoxicity [2]: drug-induced liver injury reported
Hepatotoxicity [3]: no drug-induced liver injury reported

C=O [FORMALDEHYDE]
Hepatotoxicity ([1]; Liver): drug-induced liver injury reported
Hepatotoxicity ([2]; Liver): drug-induced liver injury reported
Hepatotoxicity ([3]; Liver): no drug-induced liver injury reported

O=C([O-])P(=O)([O-])[O-].[Na+].[Na+].[Na+] [FOSCARNET SODIUM]
Hepatotoxicity [1]: no drug-induced liver injury reported
Hepatotoxicity [2]: drug-induced liver injury reported
Hepatotoxicity [3]: no drug-induced liver injury reported

C[C@@H]1O[C@@H]1P(=O)(O)O [FOSFOMYCIN]
Hepatotoxicity [1]: drug-induced liver injury reported
Hepatotoxicity [2]: no drug-induced liver injury reported
Hepatotoxicity [3]: no drug-induced liver injury reported

CCC(=O)O[C@@H](O[P@](=O)(CCCCc1ccccc1)CC(=O)N1C[C@H](C2CCCCC2)C[C@H]1C(=O)O)C(C)C [FOSINOPRIL]
Hepatotoxicity [1]: drug-induced liver injury reported
Hepatotoxicity [2]: no drug-induced liver injury reported
Hepatotoxicity [3]: no drug-induced liver injury reported

NC[C@@H]1O[C@H](O[C@H]2[C@@H](O)[C@H](O[C@@H]3[C@@H](O)[C@H](N)C[C@H](N)[C@H]3O[C@H]3O[C@H](CN)[C@@H](O)[C@H](O)[C@H]3N)O[C@@H]2CO)[C@H](N)[C@@H](O)[C@@H]1O [FRAMYCETIN]
Hepatotoxicity ([1]; Liver): no drug-induced liver injury reported
Hepatotoxicity ([2]; Liver): drug-induced liver injury reported
Hepatotoxicity ([3]; Liver): no drug-induced liver injury reported

O=P(O)(O)OC[C@H]1O[C@@](O)(COP(=O)(O)O)[C@@H](O)[C@@H]1O [FRUCTOSE 1,6-DIPHOSPHATE]
Hepatotoxicity [1]: drug-induced liver injury reported
Hepatotoxicity [2]: drug-induced liver injury reported
Hepatotoxicity [3]: no drug-induced liver injury reported

O=C(CO)[C@@H](O)[C@H](O)[C@H](O)CO [FRUCTOSE]
Hepatotoxicity [1]: drug-induced liver injury reported
Hepatotoxicity [2]: drug-induced liver injury reported
Hepatotoxicity [3]: drug-induced liver injury reported

c1ccoc1 [FURAN]
Hepatotoxicity [1]: no drug-induced liver injury reported
Hepatotoxicity [2]: drug-induced liver injury reported
Hepatotoxicity [3]: no drug-induced liver injury reported

O=C1OCCN1/N=C/c1ccc([N+](=O)[O-])o1 [FURAZOLIDONE]
Hepatotoxicity [1]: no drug-induced liver injury reported
Hepatotoxicity [2]: drug-induced liver injury reported
Hepatotoxicity [3]: no drug-induced liver injury reported

CC(=O)O[C@H]1C[C@@]2(C)[C@@H](C[C@@H](O)[C@H]3[C@@]4(C)CC[C@@H](O)[C@@H](C)[C@@H]4CC[C@@]32C)/C1=C(\CCC=C(C)C)C(=O)O [FUSIDIC ACID]
Hepatotoxicity [1]: drug-induced liver injury reported
Hepatotoxicity [2]: no drug-induced liver injury reported
Hepatotoxicity [3]: no drug-induced liver injury reported

Nc1nc(O)c2ncn(COC(CO)CO)c2n1 [GANCICLOVIR]
Hepatotoxicity [1]: drug-induced liver injury reported
Hepatotoxicity [2]: no drug-induced liver injury reported
Hepatotoxicity [3]: no drug-induced liver injury reported

COc1c(N2CCNC(C)C2)c(F)cc2c(=O)c(C(=O)O)cn(C3CC3)c12 (centres undefined) [GATIFLOXACIN]
Hepatotoxicity [1]: drug-induced liver injury reported
Hepatotoxicity [2]: no drug-induced liver injury reported
Hepatotoxicity [3]: no drug-induced liver injury reported

COc1cc2ncnc(Nc3ccc(F)c(Cl)c3)c2cc1OCCCN1CCOCC1 [GEFITINIB]
Hepatotoxicity [1]: drug-induced liver injury reported
Hepatotoxicity [2]: drug-induced liver injury reported
Hepatotoxicity [3]: no drug-induced liver injury reported

COC1=C2C[C@@H](C)C[C@H](OC)[C@H](O)[C@@H](C)/C=C(\C)[C@H](OC(N)=O)[C@@H](OC)/C=C\C=C(/C)C(=O)NC(=CC1=O)C2=O [GELDANAMYCIN]
Hepatotoxicity [1]: drug-induced liver injury reported
Hepatotoxicity [2]: no drug-induced liver injury reported
Hepatotoxicity [3]: no drug-induced liver injury reported

Cc1ccc(C)c(OCCCC(C)(C)C(=O)O)c1 [GEMFIBROZIL]
Hepatotoxicity [1]: drug-induced liver injury reported
Hepatotoxicity [2]: drug-induced liver injury reported
Hepatotoxicity [3]: no drug-induced liver injury reported

CN(C)c1ccc(C(=C2C=CC(=[N+](C)C)C=C2)c2ccc(N(C)C)cc2)cc1.[Cl-] [GENTIAN VIOLET]
Hepatotoxicity [1]: no drug-induced liver injury reported
Hepatotoxicity [2]: drug-induced liver injury reported
Hepatotoxicity [3]: no drug-induced liver injury reported

CC1(C)CC(=O)N(CCCCN2CCN(c3ncccn3)CC2)C(=O)C1 [GEPIRONE]
Hepatotoxicity [1]: drug-induced liver injury reported
Hepatotoxicity [2]: no drug-induced liver injury reported
Hepatotoxicity [3]: no drug-induced liver injury reported

C#C[C@]1(O)C=C[C@H]2[C@@H]3CCC4=CC(=O)CC[C@@H]4[C@H]3CC[C@@]21CC [GESTODENE]
Hepatotoxicity [1]: drug-induced liver injury reported
Hepatotoxicity [2]: no drug-induced liver injury reported
Hepatotoxicity [3]: no drug-induced liver injury reported

O=C(OCC(O)CO)c1ccccc1Nc1ccnc2cc(Cl)ccc12 (centres undefined) [GLAFENINE]
Hepatotoxicity ([1]; Liver): drug-induced liver injury reported
Hepatotoxicity ([2]; Liver): no drug-induced liver injury reported
Hepatotoxicity ([3]; Liver): no drug-induced liver injury reported

Cc1ccc(S(=O)(=O)NC(=O)NN2CC3CCCC3C2)cc1 (centres undefined) [GLICLAZIDE]
Hepatotoxicity [1]: drug-induced liver injury reported
Hepatotoxicity [2]: no drug-induced liver injury reported
Hepatotoxicity [3]: no drug-induced liver injury reported

N[C@H]1C(O)O[C@H](CO)[C@@H](O)[C@@H]1O (some centres undefined) [GLUCOSAMINE]
Hepatotoxicity [1]: no drug-induced liver injury reported
Hepatotoxicity [2]: drug-induced liver injury reported
Hepatotoxicity [3]: no drug-induced liver injury reported

N[C@@H](CCC(=O)O)C(=O)O [GLUTAMIC ACID]
Hepatotoxicity [1]: no drug-induced liver injury reported
Hepatotoxicity [2]: drug-induced liver injury reported
Hepatotoxicity [3]: no drug-induced liver injury reported

NC(=O)CC[C@H](N)C(=O)O [GLUTAMINE]
Hepatotoxicity [1]: drug-induced liver injury reported
Hepatotoxicity [2]: drug-induced liver injury reported
Hepatotoxicity [3]: drug-induced liver injury reported

CCC1(c2ccccc2)CCC(=O)NC1=O (centres undefined) [GLUTETHIMIDE]
Hepatotoxicity [1]: drug-induced liver injury reported
Hepatotoxicity [2]: no drug-induced liver injury reported
Hepatotoxicity [3]: no drug-induced liver injury reported

COc1ccc(Cl)cc1C(=O)NCCc1ccc(S(=O)(=O)NC(=O)NC2CCCCC2)cc1 [GLYBURIDE]
Hepatotoxicity [1]: drug-induced liver injury reported
Hepatotoxicity [2]: drug-induced liver injury reported
Hepatotoxicity [3]: no drug-induced liver injury reported
